Reference: patent publication US11667629B2, “Isoxazole derivative, preparation method therefor, and use thereof” (SICHUAN KELUN-BIOTECH BIOPHARMACEUTICAL CO., LTD., priority 2017, dated 2023)

How the values were obtained:
[1] = Liver microsomal stability test, rat; type: in vitro ADME; conditions: liver microsomes; rat liver microsome, 1 μM compound, 0.5 mg/mL, NADPH
Description: (§1) The test compound (50 μL) was mixed with the liver microsome (100 μL) of each species, after pre-incubation at 37° C. for 5 minutes, NADPH (50 μL) was added, and the incubation was performed for 0, 30, and 60 minutes. The incubation concentrations of the test compound, NADPH, and liver microsomal enzyme were 1 μM, 1 mM, and 0.5 mg/mL, respectively. Ice-cold acetonitrile (200 μL) was added to stop the reaction, and an appropriate volume of the internal standard was then added. After the vortex and centrifugation process, the supernatant was obtained and detected.
(§2) LC-MS/MS, wherein the mass spectrometer was API 5500, and the liquid chromatograph was Shimadzu LC-30AD system. The chromatographic column was Hypersil GOLD C18, 1.9 μm particle size, 50×2.1 mm; mobile phase A was water+0.1% formic acid, phase B was acetonitrile; flow rate was 0.55 mL/min, and column temperature was 40° C. The ion source was an ESI source positive ion mode, and the scanning mode is multiple reaction monitoring (MRM).
(§3) By determining the concentrations of the samples at different incubation time, the rate constant was obtained by plotting “Ln (amount of the remained drug %)” versus “incubation time”. The half-life and liver clearance rate of the drug were then calculated, and were used to evaluate the metabolic stability of the drug in liver microsome.

[2] = molecular target: T1, FXR (Homo sapiens, UniProt Q96RI1); test: Luciferase reporter gene assay (HEK293 cotransfected with FXR and human BSEP luciferase reporter); type: cell-based
T1 construct: expressed in transfected cells; host or cells: HEK293
T1 sequence (Q96RI1 1-486): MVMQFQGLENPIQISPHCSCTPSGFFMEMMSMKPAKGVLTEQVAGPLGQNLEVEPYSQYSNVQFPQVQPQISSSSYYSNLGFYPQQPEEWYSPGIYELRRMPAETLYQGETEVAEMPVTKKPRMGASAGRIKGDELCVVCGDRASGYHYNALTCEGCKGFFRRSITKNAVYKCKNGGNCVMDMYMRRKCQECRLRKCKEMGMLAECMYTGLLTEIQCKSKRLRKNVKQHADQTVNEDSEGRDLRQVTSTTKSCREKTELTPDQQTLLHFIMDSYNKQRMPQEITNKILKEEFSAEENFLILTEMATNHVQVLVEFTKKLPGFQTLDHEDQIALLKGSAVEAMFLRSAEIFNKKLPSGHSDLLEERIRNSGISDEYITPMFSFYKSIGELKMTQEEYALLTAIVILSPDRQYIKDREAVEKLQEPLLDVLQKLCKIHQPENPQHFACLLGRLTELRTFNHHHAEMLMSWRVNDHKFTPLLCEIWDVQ
Description: Human embryonic kidney cells HEK293 were cultured in a DMEM medium containing 10% FBS. Plasmids were cotransfected to allow the cells to have over expression of FXR and human BSEP luciferase reporter genes. The transfected cells were digested, resuspended, counted, and plated in a multi-well plate. 10 μL of the test compound at various concentrations was added to the multi-well plate to result in final concentrations of 64 μM, 16 μM, 4 μM, 1 μM, 0.25 μM, 0.0625 μM, 0.0156 μM, 0.0039 μM, 0.000975 μM, 0.000244 μM, 0 μM, and the final concentration of DMSO was 0.5%. After the test compound was incubated with the cells for 18 hours, the Brigh-Glo™ detection reagent was added, and the chemical light unit value (RLU) was detected by a multifunctional automatic microplate reader. Taking the signal value of the blank well (without the test compound) as 100%, the relative signal percentage (%) at each concentration of the test compound was calculated. The SigmaPlot 10 software was employed to fit the EC50 and the maximum activation effect Emax (relative signal percentage) of the test compounds using a four-parameter model.

[3] = Liver microsomal stability test, dog; type: in vitro ADME; conditions: liver microsomes; dog liver microsome, 1 μM compound, 0.5 mg/mL, NADPH
Description: as §1, §2, §3

[4] = Liver microsomal stability test, human; type: in vitro ADME
Description: as §1, §2, §3

[5] = Liver microsomal stability test, mouse; type: in vitro ADME; conditions: liver microsomes; mouse liver microsome, 1 μM compound, 0.5 mg/mL, NADPH
Description: as §1, §2, §3

[6] = molecular target: T2, FXR (Homo sapiens, UniProt Q96RI1); test: Bile acid receptor FXR coactivator binding assay (LanthaScreen TR-FRET); type: biochemical
T2 construct: purchased Invitrogen
Description: The Invitrogen⋅LanthaScreen™ TR-FRET Farnesoid X Receptor Coactivator Assay kit was employed to determine the activation effect of the compounds on FXR.
After the receptor was incubated with the test compound at various concentrations at room temperature, the fluorescent-labeled coactivator short peptides and terbium-labeled antibody were added, and the FRET signal was detected after the reaction was complete at room temperature. The group without the receptor protein was employed as a blank, the activation effect (EC50) and maximum activation effect signal value (Emax) of the test compounds on FXR were calculated according to the four-parameter fitting equation: y=E min+(E max−E min)/(1+(x/EC50)^(−Hillslope))

Q: For `O=C(O)c1ccc(-c2csc(N3[C@@H]4CC[C@H]3C[C@@H](OCc3c(-c5ccccc5OC(F)(F)F)noc3C3CC3)C4)n2)cc1C(F)(F)F` [Compound C46, 4-(2-((1R,3r,5S)-3-((5-cyclopropyl-3-(2-(trifluoromethoxy)phenyl)isoxazol-4-yl)methoxy)-8-azabicyclo[3.2.1]octan-8-yl)thiazol-4-yl)-2-(trifluoromethyl)benzoic acid], which CLint scaled at 1 μM [1] is on record?
A: 0.96 mL/min/kg

Q: What about the half-life at 1 μM [1] of the same molecule?
A: 16.1 h

Q: And the EC50 ([2]; HEK293, 18 hours incubation)?
A: 14 ± 5 nM

Q: What about the Emax ([2]; HEK293, maximum activation effect, relative signal percentage, blank well = 100%) of the same molecule?
A: 301%

Q: What about the CLint scaled at 1 μM [3] of the same molecule?
A: 8.03 mL/min/kg

Q: What about the half-life at 1 μM [3] of the same molecule?
A: 4.32 h

Q: And the “clearance rate in human liver microsome” value [4]?
A: 14.9 mL/min/kg

Q: And the CLint scaled at 1 μM [5]?
A: 15.3 mL/min/kg

Q: What about the half-life at 1 μM [5] of the same molecule?
A: 2.5 h

Q: And the EC50 ([6]; TR-FRET coactivator assay, four-parameter fit, read-out: EC50 of the compounds on FXR)?
A: 2 ± 1 nM

Q: And the Emax ([6]; read-out: Relative activation effect)?
A: 196%
